Measured values taken from patent US5478939A, “(R,R) and (S,S) 2,5-diazabicyclo [2,2,1]heptane derivatives” (priority 1994, dated 1995).
Counter-ions that a name gives are not always drawn.

What was measured:
[1] = molecular target: muscarinic cholinergic receptor (high affinity agonist conformation); assay: [3H]-cis-Methyldioxolane (3H-CD) Binding Assay (High Affinity), cerebral cortex; details: 3H-CD 1.0 nM, rat cerebral cortex, 25° C., 120 minutes, pH 7.4; read-out: Ki, ^3 H-CD (ctx)
[2] = molecular target: muscarinic cholinergic receptor; assay: [3H] Quinuclidinyl Benzilate (QNB) Binding Assay, cerebral cortex; details: 3H-QNB 0.25 nM, rat cerebral cortex, 25° C., 120 minutes, pH 7.4; read-out: Ki, ^3 H-QNB (ctx)

SMILES | Ki [1] [µM] | Ki [2] [µM]
Cc1nccnc1N1C[C@@H]2C[C@H]1CN2C [Example 35, (S,S)-2-Methyl-5-(3-methylpyrizin-2-yl)-2,5-diazabicyclo[2.2.1]heptane] | 1.7 | 6.3
CN1C[C@@H]2C[C@H]1CN2c1nccnc1Cl [Example 23, (S,S)-2-(3-Chloropyrazin-2-yl)-5-methyl-2,5-diazabicyclo[2.2.1]heptane] | 0.9 | 2.3
Cc1nsc(N2C[C@@H]3C[C@H]2CN3C)n1 [Example 26, (S,S)-2-Methyl-5-(3-methyl-1,2,4-thiadiazol-5-yl)-2,5-diazabicyclo[2.2.1]heptane] | 0.2 | 0.5
Cc1cnc(C)c(N2C[C@@H]3C[C@H]2CN3C)n1 [Example 22, (S,S)-2-(3,6-Dimethylpyrazin-2-yl)-5-methyl-2,5-diazabicyclo[2,2.1]heptane] | 0.7 | 1.2
COc1cncc(N2C[C@@H]3C[C@H]2CN3C)n1 [Example 32, (S,S)-2-Methyl-5-(6-methoxypyrazin-2-yl)-2,5-diazabicyclo[2.2.1]heptane] | 0.3 | 0.4
c1cnc(N2C[C@H]3C[C@@H]2CN3)cn1 [Example 11, (R,R)-2-(2-Pyrazinyl)-2,5-diazabicyclo[2.2.1]heptane hydrochloride] | 0.1 | 3.1
Cc1nsc(N2C[C@@H]3C[C@H]2CN3)n1 [Example 13, (S,S)-2-(3-Methyl-1.2,4-thiadiazol-5-yl)-2,5-diazabicyclo[2.2.1]heptane] | 13 | 
CC(C)(C)OC(=O)N1C[C@H]2C[C@@H]1CN2c1ncns1 [Example 7] | > 1000 | 
CN1C[C@@H]2C[C@H]1CN2c1cncc(Cl)n1 [Example 24, (S,S)-2-(6-Chloropyrazin-2-yl)-5-methyl-2.5-diazabicyclo[2.2.1]heptane] | 2 | 4.5
c1nsc(N2C[C@H]3C[C@@H]2CN3)n1 [Example 16, (R,R)-2-(1,2,4-Thiadiazol-5-yl) -2,5-diazabicyclo[2.2.1]heptane] | 0.3 | > 1000
c1cnc(N2C[C@@H]3C[C@H]2CN3)cn1 [Example 12, (S,S)-2-(2-Pyrazinyl)-2,5-diazabicyclo[2.2.1]heptane hydrochloride] | 1.3 | 11.4
CC(C)(C)OC(=O)N1C[C@@H]2C[C@H]1CN2c1ncns1 [Example 8, (S,S)-2-(tert-Butyloxycarbonyl)-5-(1,2,4-thiadiazol-5-yl)-2,5-diazabicyclo[2.2.1]heptane] | 97 | 
CC(C)(C)OC(=O)N1C[C@H]2C[C@@H]1CN2c1cnccn1 [Example 3, (R,R)-2-(tert-Butyloxycarbonyl)-5-(2-pyrazinyl)-2,5-diazabicyclo[2.2.1]heptane] | > 1000 | 
Cc1noc(N2C[C@@H]3C[C@H]2CN3)n1 [Example 17, (S,S)-2-(3-Methyl-1,2,4-oxadiazol-5-yl)-2,5-diazabicyclo[2.2.1]heptane] | 5.4 | > 1000
CN1C[C@@H]2C[C@H]1CN2c1ccc([N+](=O)[O-])s1 [Example 29, (S,S)-2-Methyl-5-(5-nitro-2-thienyl)-2,5-diazabicyclo[2.2.1]heptane] | 6.8 | 13.2
Cc1noc(N2C[C@@H]3C[C@H]2CN3C(=O)OC(C)(C)C)n1 [Example 10] | 43.2 | 
CN1C[C@@H]2C[C@H]1CN2c1cnccn1 [Example 19, (S,S)-2-Methyl-5-(2-pyrazinyl)-2,5-diazabicyclo[2.2.1]heptane] | 0.4 | 5.5
CN1C[C@@H]2C[C@H]1CN2c1ccccc1[N+](=O)[O-] [Example 30, (S,S)-2-Methyl-5-(2-nitrophenyl)-2,5-diazabicyclo[2.2.1]heptane] | 1.1 | 1.6
Cc1nsc(N2C[C@H]3C[C@@H]2CN3C(=O)OC(C)(C)C)n1 [Example 5] | 59 | > 1000
Cc1nsc(N2C[C@H]3C[C@@H]2CN3)n1 [Example 14, (R,R)-2-(3-Methyl-1,2,4-thiadiazol-5-yl)-2,5-diazabicyclo[2.2.1]heptane] | 0.9 | 24.7
c1nsc(N2C[C@@H]3C[C@H]2CN3)n1 [Example 15, (S,S)-2-(1,2,4-Thiadiazol-5-yl)-2,5-diazabicyclo[2.2.1]heptane] | 29.5 | > 1000
Cc1noc(N2C[C@H]3C[C@@H]2CN3C(=O)OC(C)(C)C)n1 [Example 9, (R,R)-2-(tert-Butyloxycarbonyl)-5-(3-methyl-1,2,4-oxadiazol-5-yl)-2,5-diazabicyclo[2.2.1]heptane] | 18.2 | 
Cc1noc(N2C[C@H]3C[C@@H]2CN3)n1 [Example 18, (R,R)-2-(3-Methyl-1,2,4-oxadiazol-5-yl)-2,5-diazabicyclo[2.2.1]heptane] | 0.4 | 47.2
CN1C[C@H]2C[C@@H]1CN2c1cnccn1 [Example 36, (R,R)-2-Methyl-5-(2-pyrazinyl)-2,5-diazabicyclo[2.2.1]heptane] | 6.4 | > 1000
CN1C[C@@H]2C[C@H]1CN2c1sccc1[N+](=O)[O-] [Example 28, (S,S)-2-Methyl-5-(3-nitro-2-thienyl)-2,5-diazabicyclo[2.2.1]heptane] | 9.8 | > 1000
